Source: patent publication US20040072258A1, “Isoprenoid-dependent ras anchorage (idra) proteins” (priority 2003, published 2004)
“Also recorded” adds a separate entry of the source. Blank lines part the entries; values can stand above or below the compound they belong to.

Tests used:
Ras-transformed cells = details: Aharonson et al., 1998; cited from earlier work
[1] = system: cells transformed with the farnesylated but unmethylated K-Ras 4B (12V) CVYL isoform; details: cited from earlier work
[2] = system: H-Ras-transformed Rat-I (EJ) fibroblasts; details: cited from earlier work
[3] = system: prenylated Gβγ-subunits of heterotriimeric G-proteins; details: Rat-1 cell membranes; cited from earlier work
[4] = system: cells transformed by v-Raf; details: v-Raf acts independently of Ras; cited from earlier work
Ras methylation = details: in vitro; cited from earlier work
membrane Ras = target: T1, membrane Ras (Homo sapiens, UniProt P01112, G12V); test: Membrane Ras in intact EJ cells treated with FTS or GTS; type: cell-based, rat; details: without cross-linking, data not shown
T1 construct: expressed in transfected cells; host or cells: Rat-1 fibroblasts stably transformed with H-Ras (12V) (EJ cells)
Source text: (§1) In agreement with previous results [Kloog et al., 1999] FTS, but not GTS, reduced the amount of membrane Ras in the cells by 50-60% (data not shown). Similarly, FTS (but not GTS) induced a 90% reduction in the amount of membrane galectin-1 (FIG. 3). Thus, the magnitude of the FTS-induced galectin-1 decrease was much greater than that of Ras.

[5] = system: fibroblasts transformed by ErbB2; details: ErbB2 acting upstream of Ras; cited from earlier work
H-Ras [6] = target: H-Ras (Homo sapiens, UniProt P01112, G12V); details: intact cells in vitro; dislodging H-Ras from its anchorage domains; cited from earlier work
[7] = system: prenylated Rac-1 and Rho A; details: human melanoma cells; cited from earlier work
[8] = system: K-Ras 4B (12V), N-Ras (13V) and N-Ras (61L); details: membranes of rodent fibroblasts and of human tumor cell lines; cited from earlier work
myr-Ras = details: myr-Ras-transformed cells; cited from earlier work
membrane galectin-1 = target: T2, membrane galectin-1 (Rattus norvegicus, UniProt P11762); test: Membrane galectin-1 in intact EJ cells treated with FTS or GTS (Western blot); type: cell-based; details: for reduction in the amount of membrane galectin-1: intact EJ cells, without cross-linking, Western blot (FIG. 3)
T2 construct: endogenous in cells; host or cells: EJ cells (H-Ras (12V)-transformed Rat-1 fibroblasts)
Source text: FIG. 3 is a photograph of a Western blot of galectin-1 isolated from cells in the presence of a control, FTS and GTS.
Yet another aspect of the present invention is directed to a method of determining efficacious dosages of a Ras antagonist that disrupts Ras-anchor protein binding. In general, the method entails contacting cells with the antagonist in vivo or in vitro, collecting the cells following the contacting, isolating cell membranes from the collected cells, measuring decrease in anchor protein concentration per unit of cell membrane protein, and correlating the decrease with dosage of the Ras antagonist. In a preferred embodiment, a method for measuring the biological action of FTS and its analogs in vivo and in vitro is based on the suppression of the immunoassayable galectin-1 in H-Ras-transformed tumors. The basis of this assay depends upon the dose dependent loss of galectin-1 from cell membranes by FTS. Under maximal stimulation of tumor cells with FTS, 90% of galectin-1 is lost from membrane. This allows for an excellent dose response. A variation of this assay uses drug induced suppression of the anchor proteins in normal human lymphocytes isolated from patients being treated with FTS in phase 1 clinical trials. A dose of FTS or any other Ras antagonist that maximally suppresses galectin-1 (or the respective anchor protein of the antagonist) should be a dose that produces effects on other biological endpoints in vivo. When such assay is in mice and humans, therapeutically efficacious doses of Ras antagonists for humans can be determined.
as §1

[9] = target: T3, Ras-IDRA complex (34-43 kDa) (Rattus norvegicus, UniProt P11762); test: Chemical cross-linking (DSS/DSP) of Ras-IDRA complexes in EJ cells and membranes, SDS-PAGE, Ras Ab immunoblot, purification; type: cell-based
T3 construct: expressed in transfected cells; host or cells: EJ cells (Rat-1 transformed with H-Ras (12V)) and their membranes; galectin-1 is endogenous
Description: FIG. 1 is a photograph of an electrophoretic gel illustrating use of Ras antibodies and chemical cross-linkers for identification of Ras IDRA complexes that are sensitive to the Ras inhibitor, FTS. Ras antibodies (Ab) identify Ras and Ras-IDRA complex in EJ cell membranes. Membranes corresponding to 10^6 control or FTS (50 μM)-treated EJ cells were incubated in 50 mM sodium bicarbonate buffer, pH 8.5, containing protease inhibitors and 2% DMSO (no cross-linker controls) or the indicated concentrations of the cross-linkers DSS or DSP. Samples of Triton X-100 extracts of the membranes were subjected to SDS-PAGE under non-reducing conditions followed by Western immunoblotting with Ras Ab. Open arrow corresponds to Ras (21 kDa) and closed arrow corresponds to the major Ras-putative IDRA band (34-43 kDa) detected in the blot under these conditions. This band is not detected in the blots of the non cross-linked samples or in the blots of the cross-linked samples of FTS-treated cells.
We used chemical cross-linkers in an attempt to identify the rapidly dissociating complexes of Ras and Ras-interacting proteins. […] When membranes of control and FTS-treated cells were exposed to these cross-linkers solubilized and fractionated on SDS-containing gels, Ras-immunoreactive bands were clearly detected at 34-43 kDa, 50 kDa, and 70 kDa (FIG. 1). […]

H-Ras [10] = details: cited from earlier work

T2 sequence (P11762 whole entry): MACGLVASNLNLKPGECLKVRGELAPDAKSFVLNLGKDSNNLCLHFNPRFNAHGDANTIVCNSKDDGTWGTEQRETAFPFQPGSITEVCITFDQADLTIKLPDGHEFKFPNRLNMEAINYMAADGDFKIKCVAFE
T3 sequence (P11762 2-135 limits assumed, one chain of several): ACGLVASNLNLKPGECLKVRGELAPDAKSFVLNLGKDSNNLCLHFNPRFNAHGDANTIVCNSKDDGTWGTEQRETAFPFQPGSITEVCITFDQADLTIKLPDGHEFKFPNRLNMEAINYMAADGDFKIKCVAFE

Structure (SMILES): CC(C)=CCC/C(C)=C/CC/C(C)=C/CC/C(C)=C/CSc1ccccc1C(=O)O [GGTS]
inhibition of growth of Ras-transformed cells (Ras-transformed cells): inhibited growth

reduction of the amount of membrane Ras in the cells (membrane Ras): 50-60%
levels of endogenous galectin-1 in EJ cells (membrane galectin-1; EJ cells, in parallel with the decrease in Ras): decreased the levels
reduction in the amount of membrane galectin-1 (membrane galectin-1): 90%
34-43 kDa Ras-putative IDRA cross-linked band ([9]; FTS (50 μM)-treated EJ cells or membranes, DSS or DSP, Ras Ab blot (FIG. 1)): not detected; also recorded: not present
Structure (SMILES): CC(C)=CCC/C(C)=C/CC/C(C)=C/CSc1ccccc1C(=O)O [FTS, S-trans, trans-farnesylthiosalicylic acid]
inhibition of growth of K-Ras 4B (12V) CVYL-transformed cells [1]: inhibits growth
growth inhibition ([2]; H-Ras-transformed Rat-I (EJ) fibroblasts): potent growth inhibitor
effective concentration range ([2]; affected specifically the membrane-bound H-Ras protein in these cells): 5 to 50 µM
dislodging of prenylated Gβγ-subunits from membranes [3]: did not dislodge
inhibition of growth of v-Raf-transformed cells [4]: not the growth
inhibition of Ras methylation (Ras methylation): inhibit
inhibition of growth of ErbB2-transformed fibroblasts [5]: inhibits the growth
total amount of cellular Ras (H-Ras [6]): reduced the total amount of cellular Ras
reduction of the amounts of prenylated Rac-1 and Rho A [7]: did not reduce
dislodging of K-Ras 4B (12V), N-Ras (13V) and N-Ras (61L) from membranes [8]: dislodges
inhibition of growth of Ras-transformed cells (Ras-transformed cells): inhibited growth
effect on myr-Ras (myr-Ras): no effect
amount of galectin-1 purified from cross-linked complexes of treated EJ cells ([9]; FTS-treated EJ cells, Western blot (FIG. 2)): reduces the amounts of anchor; also recorded: very low
inhibition of farnesylation of H-Ras (H-Ras [10]): did not inhibit

Structure (SMILES): COC(=O)c1ccccc1SCC=C(C)CCC=C(C)CCC=C(C)C [carboxy methylester analogue]
inhibition of growth of Ras-transformed cells (Ras-transformed cells): not

reduction of the amount of membrane Ras in the cells (membrane Ras): not
reduction in the amount of membrane galectin-1 (membrane galectin-1): no effect and not
Structure (SMILES): CC(C)=CCC/C(C)=C/CSc1ccccc1C(=O)O [GTS]
inhibition of growth of Ras-transformed cells (Ras-transformed cells): not
